From patent US20240393340A1, “PROGNOSIS AND PREDICTIVE BIOMARKERS AND BIOLOGICAL APPLICATIONS THEREOF” (INSTITUT GUSTAVE ROUSSY, priority 2013, published 2024)
Where two headings read alike, the source gives them in different places.

Tests used:
Mel888 = test: WST-1 cell proliferation assay (Example 2); format: cell-based
Method: (§1) Cell viability was determined using the WST-1 cell proliferation assay. Data are means±s.d. (n=3). FIG. 7B: Long-term colony formation assay of the indicated cell lines. Cells were grown in the absence or presence of vemurafenib at the indicated concentrations for two weeks. For each cell line, all dishes were fixed at the same time, stained and photographed.
(§2) Cell proliferation was measured using a WST-1 reagent (Roche Applied Science, IN, USA). Melanoma cells were plated (5000 cells per well) in 96-well tissue culture plates. After 24 h, the cells were treated with drugs or DMSO at the indicated concentrations, in triplicates. WST-1 reagent was added to the wells and incubated at 37° C. for 2 h before and after the treatment period of 48 h. […] Cell proliferation is expressed as percent of the absorbance compared to mock-treated cells.

A375 = test: WST-1 cell proliferation assay (Example 2); format: cell-based
Method: as §1, §2

Mel10 = test: WST-1 cell proliferation assay (Example 2); format: cell-based
Method: as §1, §2

SKMEL 28 = test: WST-1 cell proliferation assay (Example 2); format: cell-based
Method: as §1, §2

A2058 [1] = test: WST-1 cell proliferation assay (Example 2); format: cell-based; details: for IC50: A2058, 48 h; for sensitivity of the cell line compared to other cell lines (e.g. A375, Mel888): A2058, short-term and long-term proliferation assays, Example 2
Method: as §1
(§3) Cell viability was determined using the WST-1 cell proliferation assay. Data are means±s.d. (n=4). […] The upper left region of the figure represents increasing degrees of synergy. The minimum and maximum Bliss index values were shown as an interval within square brackets under each isobologram. The Bliss index was calculated as the ratio Observed/Expected where an index=1, […] and >1 indicates additive, antagonistic and synergistic effects, respectively.
as §2
(§4) For clonogenic assays, cells were plated at low density (1×10^3 cells per well in a 6-well tissue culture plates) in fresh media. After 24 h, cells were treated with drugs or DMSO at the indicated concentrations, in duplicates. After 14 days cells were stained with 0.5% (w/v) crystal violet in 70% ethanol and the number of colonies was counted.

Mel624 [2] = test: WST-1 cell proliferation assay (Example 2); format: cell-based; details: for sensitivity of the cell line compared to other cell lines (e.g. A375, Mel888): Mel624, short-term and long-term proliferation assays, Example 2
Method: as §1, §3, §2, §4

A2058 [3] = test: Short-term growth-inhibition assay (Example 1); format: cell-based; details: A2058; short-term and long-term proliferation assays, Example 1
Method: (§5) FIGS. 1A-1B: Short-term growth-inhibition assay of a panel of melanoma cell lines including BRAF (V600E) cell lines and an NRAS (Q61R) mutated cell line. FIG. 1A. Cells were treated with increasing concentrations of N-[3-[(5-Chloro-1H-pyrrolo[2,3-b]pyridin-3-yl)carbonyl]-2,4-difluorophenyl]-1-propanesulfonamide (PLX-4720) for 72 h and cell viability was determined using CellTiter-Blue by measuring the absorbance at 540 nm in a microplate reader. Error bars show data +standard error. Means were derived from four replicates (n=4). FIG. 1B. Long-term colony formation assay of the indicated cells. Cells were grown in the absence or presence of PLX-4720 at the indicated concentrations for 15-20 days. For each cell line, all dishes were fixed at the same time, stained and photographed. […]
(§6) The inventors quantified the effect of exposing these cell lines to PLX-4720 on the half-maximum inhibitory concentration (IC50) (Table 1).

Mel624 [4] = test: Short-term growth-inhibition assay (Example 1); format: cell-based; details: Mel624; short-term and long-term proliferation assays, Example 1
Method: as §5, §6

melanoma = details: patients, cited from earlier work
[5] = Homo sapiens, A-375, A375, 48 h, read-out: IC50
[6] = Homo sapiens, SK-MEL-28, SKMEL 28, 48 h, read-out: IC50

Structure (SMILES) | IC50 (Mel888; Mel888, 48 h, read-out: IC50) [nM] | IC50 (A375; A375, 48 h, read-out: IC50) [nM] | IC50 (Mel10; MEL10, 48 h, read-out: IC50) [nM] | IC50 (SKMEL 28; SKMEL 28, 48 h, read-out: IC50) [nM] | IC50 (A2058 [1]; read-out: IC50) [nM] | sensitivity of the cell line compared to other cell lines (e.g. A375, Mel888) (A2058 [1]) | IC50 (Mel624 [2]; Mel624, 48 h, read-out: IC50) [nM] | sensitivity of the cell line compared to other cell lines (e.g. A375, Mel888) (Mel624 [2]) | IC50 (A375; [5]) [nM] | IC50 (SKMEL 28; [6]) [nM] | IC50 (A2058 [1]; Homo sapiens, read-out: IC50) [nM] | other results
O=C(O)C(Cc1ccccc1[N+](=O)[O-])=NNc1nc(-c2ccc(Cl)c(Cl)c2)cs1 (mixture of isomers) [4EGi-1] | 77000 | > 100000 | > 100000 | > 100000 | 50000 | more sensitive | 26000 | more sensitive | – | – | – | sensitivity of the cell line compared to the other BRAF (V600E)-mutated melanoma cell lines (A2058 [3]): more sensitive; sensitivity of the cell line compared to the other BRAF (V600E)-mutated melanoma cell lines (Mel624 [4]): more sensitive
Nc1ncnc2n[nH]c(Nc3ccc(F)cc3)c12 [CGP 57380] | 25000 | 35000 | 28000 | 60000 | > 100000 | less sensitive | > 100000 | less sensitive | – | – | – | –
O=C(NOC[C@H](O)CO)c1ccc(F)c(F)c1Nc1ccc(I)cc1F [PD 0325901] | 2 | – | 3 | – | – | less sensitive | 96 | less sensitive | 10 | 9 | 33 | –
COC(=O)[C@H]1[C@@H](O)[C@@]2(O)c3c(OC)cc(O[C@@H]4O[C@@H]([C@H](O)CO)CO[C@H]4OC)cc3O[C@@]2(c2ccc(OC)cc2)[C@@H]1c1ccccc1 [Silvestrol] | – | – | – | – | – | – | – | – | – | – | – | IC50 (Mel888; 48 h): 17 nM; IC50 (A375; Homo sapiens, A-375, 48 h): 21 nM; IC50 (Mel10; 48 h): 46 nM; IC50 (SKMEL 28; Homo sapiens, SK-MEL-28, 48 h): 3 nM; IC50 (A2058 [1]; Homo sapiens): 2 nM; IC50 (Mel624 [2]; 48 h): 4 nM
CCCS(=O)(=O)Nc1ccc(F)c(C(=O)c2c[nH]c3ncc(-c4ccc(Cl)cc4)cc23)c1F [Vemurafenib] | 100 | – | > 10000 | – | – | – | 2000 | – | 400 | 400 | 2400 | –
CC(C)(C)c1nc(-c2cccc(NS(=O)(=O)c3c(F)cccc3F)c2F)c(-c2ccnc(N)n2)s1 [dabrafenib] | – | – | – | – | – | – | – | – | – | – | – | response rate (objective responses) (melanoma): 50%; progression-free survival (melanoma; compared with chemotherapy): 5.1 months; progression-free survival hazard ratio (melanoma; versus chemotherapy): 0.30
